Reference: patent US12134594B2, “Composition and application thereof as antitumor drug” (Guangdong Jianersheng Pharmaceutical Technology Co., Ltd., priority 2018, dated 2024)

Columns and labels:
rats = assay: acute oral lethal dose (LD50) in rats; assay type: in vivo, rat
Excerpt: (§1) According to the technical solutions provided by the present disclosure, the disclosure has the following beneficial effects: • 1. The novel compound in the composition has a high chelating effect on the platinum-based antitumor compound and toxic heavy metals. […] For example, in a test performed in a mouse model with 4T1 breast carcinoma xenografts, the composition combined treatment could better delay tumor growth and inhibit metastasis than administrating the platinum-based antitumor compound alone. • 4. […] Co-treatment using the composition could greatly reduce systemic toxicity in mice and reduce weight loss caused by administrating the platinum-based antitumor compound alone.

mice = assay: acute oral lethal dose (LD50) in mice; assay type: in vivo, mouse
Excerpt: as §1

HK2 cells [1] = assay: platinum content in HK2 cells by ICP-MS; assay type: cell-based, human
Procedure: The amount of platinum in the cells was determined by an IPC-MS assay.
Platinum concentration was 8.33 ng/10^6 cells. […] Platinum concentration in the HK2 cells dropped by 38.0% to 5.16 ng/10^6 cells as a result.

HK2 cells [2] = assay: in vitro MTT cell viability assay, HK2 cells; assay type: cell-based, human
Procedure: (§2) The cells involved in this example include a human renal proximal tubular cell line HK2 ([…]2190), a pig proximal tubular cell line LLC-PK1 ([…] 101) and a mouse breast cancer cell line 4[…]2539), which were all purchased from American Type Culture Collection. LLC-PK1 cells were cultured in Dulbecco modified Eagle's medium (DMEM), HK2 cells were cultured in DMEM/F12 medium, and 4T1 cells were cultured in RPMI 1640 medium. All cell media were supplemented with 10% FBS, 100 units/ml penicillin and 100 […]. The cell lines were incubated at 37° C. in a 5% CO2 atmosphere and subcultured twice a week. 3.2 In vitro cell viability assay The HK2 cells and the LLC-PK1 cells were treated with trypsin and inoculated in a 100 μL medium in a 96-well plate at a density of 10,000 cells/well. The cells were incubated for 24 h before treatment. To examine the toxicity of the novel compound, the cells were treated with different doses of the novel compound for 24 h. […] The medium was then changed, and the cells were treated with different doses of the novel compound for 48 h. After treatment, cell viability was measured by an MTT assay. 10 μL of a 12 mM MTT (3-(4,5-dimethylthiazol-2-yl)-2,5-diphenyltetrazolium bromide) stock solution was added into each well. After incubation for 4 h at 37° C., the medium was removed; 100 μL of dimethyl sulfoxide (DMSO) was added into each well, and then the plate was incubated for 10 min at 37° C. The plate was shaken in a plate oscillator, and a plate reader (Bio-Tek) was used to measure the absorbance at 570 nm.

[3] = blood BUN and creatinine (kidney injury markers) in 4T1 mouse model; assay type: in vivo; settings: 3 weeks
Procedure: The control group was intraperitoneally (i.p.) administrated with 0.9% normal saline. […] All mice were treated for 3 weeks.
An EDTA tube was used to collect whole blood for a complete blood count (CBC) test. Plasma was collected by centrifugation blood collected in a heparin-coated tube. The plasma was used to carry out tests and analyses including CBC and a blood chemical test; plasma BUN and creatinine level were markers of kidney injury.
A 4T1 breast cancer mouse model was used to evaluate the antitumor ability and protective effect of the novel compound. […] When the novel compound was used for intervention, BUN level dropped by 46% to 47.6 mg/dl.

LLC-PK1 cells = assay: in vitro MTT cell viability assay, LLC-PK1 cells; assay type: cell-based, pig
Procedure: as §2

[4] = kidney histopathology (HE) in 4T1 mouse model; assay type: in vivo; settings: 3 weeks
Procedure: The control group was intraperitoneally (i.p.) administrated with 0.9% normal saline. […] All mice were treated for 3 weeks. Histopathological examination of mouse tissues: histopathological changes of the kidney were examined by a 4 μm-thick deparaffinized section stained with hematoxylin and eosin (HE). To evaluate tubular damages, dilation, necrosis, apoptosis, and cast formation of renal tubules were assessed via 10 different fields of view (Zeiss Axio imager electrofluorescence microscope) at the cortical medullary junction of the kidney.

[5] = metal and platinum amount in kidney by ICP-MS; assay type: in vivo, mouse
Procedure: The control group was intraperitoneally (i.p.) administrated with 0.9% normal saline. […] All mice were treated for 3 weeks. The kidney was sliced, weighed and dissolved in 70% HNO3; blood plasma was diluted with 70% HNO3. The sample was heated by a 100° C. hot block until thoroughly evaporated. All solid residues were re-dissolved in 5 mL of 2% HNO3. Platinum was quantified by inductively coupled plasma mass spectrometry (ICP-MS).

[6] = after administration of cisplatin and GMDTC

CSCC[C@@H](C(=O)[O-])N(C[C@H](O)[C@@H](O)[C@H](O)[C@H](O)CO)C(=S)[S-].[Na+].[Na+] [GMDTC, sodium (S)-2-(dithiocarboxylate ((2S,3R,4R,5R)-2,3,4,5,6-pentahydroxyhexyl)amino)-4-(methylthio)butyrate]
acute oral lethal dose (LD50) (rats): greater than 10,000 mg/kg
acute oral lethal dose (LD50) (mice): greater than 10,000 mg/kg
drop of platinum concentration in HK2 cells (HK2 cells [1]; 50 μM cisplatin + 1000 μM novel compound vs cisplatin alone): 91.5%
platinum concentration in HK2 cells (HK2 cells [1]; 50 μM cisplatin co-administrated with 1000 μM novel compound, 24 h): 17.2 ng/10^6 cells
platinum concentration in HK2 cells (HK2 cells [1]; cisplatin exposure 30 min, then 1000 μM novel compound intervention, 48 h): 5.16 ng/10^6 cells
drop of platinum concentration in HK2 cells (HK2 cells [1]; rescue with 1000 μM novel compound after 30 min cisplatin vs no rescue): 38.0%
impact on viability of HK2 cells compared with blank control (HK2 cells [2]; 1000 μM, 24 h, MTT): not significantly
cell viability (HK2 cells [2]; HK2 cells pretreated with 300 μM cisplatin 30 min, then GMDTC for 48 h (FIG. 4)): 60 % of that of the control group
cell viability (HK2 cells [2]; HK2 cells, 50 μM cisplatin + increasing doses of novel compound, 24 h (FIG. 3A)): 80%
IC50 (HK2 cells [2]; HK2 cells, 24 h, MTT, read-out: IC50 (toxicity, cell viability)): ~8 mM
drop of BUN level ([3]; cisplatin + 500 mg/kg novel compound vs cisplatin alone): 46%
BUN level ([3]; mice, 5 mg/kg cisplatin twice a week + 500 mg/kg novel compound 2 h after cisplatin): 47.6 mg/dL
impact on viability of LLC-PK1 cells compared with blank control (LLC-PK1 cells; 400 μM, 24 h, MTT): not significantly
cytotoxicity on co-treatment (LLC-PK1 cells; LLC-PK1 cells, 50 μM cisplatin + novel compound, 24 h (FIG. 3B)): reduce cytotoxicity
IC50 (LLC-PK1 cells; LLC-PK1 cells, 24 h, MTT, read-out: IC50 (toxicity, cell viability)): ~8 mM
kidney histopathology ([4]; mice co-treated with cisplatin and 500 mg/kg novel compound, compared with control group): no significant difference
effect on amount and distribution of normal (essential) metals in the body ([5]; mice, ICP-MS, compared with control mice (Table 1 and Table 2)): does not affect

N.N.[Cl][Pt][Cl] [cisplatin]
platinum concentration in HK2 cells (HK2 cells [1]; 50 μM cisplatin, 24 h): 202.6 ng/10^6 cells
platinum concentration in HK2 cells (HK2 cells [1]; cisplatin (300 μM) exposure 30 min, removed, cultured 48 h): 8.33 ng/10^6 cells
average BUN level ([3]; mice, 5 mg/kg cisplatin i.p. twice a week): 87.9 mg/dL
kidney histopathology ([4]; mice treated with 5 mg/kg cisplatin twice a week, 5 mg/kg): extensive necrosis and degeneration
kidney histopathology ([4]; mice treated with 5 mg/kg cisplatin twice a week, listed as Cisplatin, 5 mg/kg): extensive necrosis and degeneration of tubule cells
Amount in kidney: 27Al [5, 6]: 3.93 µg/g
Amount in kidney: 55Mn [5, 6]: 0.92 µg/g
Amount in kidney: 65Cu [5, 6]: 4.13 µg/g
Amount in kidney: 66Zn [5, 6]: 24.4 µg/g
Amount in kidney: 195Pt [5, 6]: 9.841 µg/g
